Test results as given in ChEMBL document CHEMBL4602648, “The bioisosteric modification of pyrazinamide derivatives led to potent antitubercular agents: Synthesis via click approach and molecular docking of pyrazine-1,2,3-triazoles” (Bioorg Med Chem Lett, 2020).
In brackets after ≈: the same amount, converted by molar mass. Activity calls are given as the source filed them. No cut-off for these calls is given here.

How the values were obtained:
[1] = biological target: T1, Enoyl-[acyl-carrier-protein] reductase [NADH] (Mycobacterium tuberculosis) (UniProt P9WGR1); test: Inhibition of Mycobacterium tuberculosis H37Rv ATCC 27294 InhA assessed as bacterial growth inhibition after 5 days by microplate alamar blue assay
T1 sequence (whole entry): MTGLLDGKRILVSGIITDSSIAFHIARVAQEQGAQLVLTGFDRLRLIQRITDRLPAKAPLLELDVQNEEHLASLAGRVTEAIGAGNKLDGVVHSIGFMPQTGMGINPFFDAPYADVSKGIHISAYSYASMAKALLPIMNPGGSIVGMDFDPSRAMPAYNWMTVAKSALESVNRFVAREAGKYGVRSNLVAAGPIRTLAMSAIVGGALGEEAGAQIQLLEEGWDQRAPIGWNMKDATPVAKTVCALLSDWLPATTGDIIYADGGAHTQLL

Pseudomonas aeruginosa = test: Antibacterial activity against Pseudomonas aeruginosa by dilution assay; format: functional
Escherichia coli = test: Antibacterial activity against Escherichia coli by dilution assay; format: functional
Staphylococcus aureus = test: Antibacterial activity against Staphylococcus aureus by dilution assay; format: functional
[2] = Selectivity index, ratio of IC50 for cytotoxicity against African green monkey Vero cells to MIC for antitubercular activity against Mycobacterium tuberculosis H37Rv ATCC 27294; format: toxicity, cell-based; conditions: read-out: Selectivity Index
Vero = test: Cytotoxicity against African green monkey Vero cells assessed as reduction in cell viability incubated for 48 hrs by MTT assay; format: cell-based; conditions: Chlorocebus sabaeus
[3] = Cytotoxicity against African green monkey Vero cells assessed as growth inhibition at 62.5 ug/ml after 48 hrs by MTT assay relative to control; format: cell-based; conditions: chlorocebus sabaeus, read-out: GI

Structure (SMILES)	MIC [1]	MIC (Pseudomonas aeruginosa)	MIC (Escherichia coli)	MIC (Staphylococcus aureus)	selectivity ratio [2]	IC50 (Vero)	inhibition at 48 h, 62.5 ug/ml [3]
O=C(OCc1cn(Cc2ccc(C(F)(F)F)cc2)nn1)c1cccnc1	34.5 µM (≈ 12.5 µg/mL)	50 µg/mL (≈ 138 µM)	25 µg/mL (≈ 69 µM)	25 µg/mL (≈ 69 µM)			
O=C(OCc1cn(Cc2ccccc2F)nn1)c1cccnc1	80 µM (≈ 25 µg/mL)	50 µg/mL (≈ 160 µM)	25 µg/mL (≈ 80.1 µM)	50 µg/mL (≈ 160 µM)			
O=C(OCc1cn(Cc2ccc([N+](=O)[O-])cc2)nn1)c1cnccn1	18.4 µM (≈ 6.25 µg/mL)	50 µg/mL (≈ 147 µM)	25 µg/mL (≈ 73.5 µM)	25 µg/mL (≈ 73.5 µM)			
O=C(NCc1cn(Cc2ccc([N+](=O)[O-])cc2)nn1)c1cnccn1	4.59 µM (≈ 1.56 µg/mL)	6.25 µg/mL (≈ 18.4 µM)	6.25 µg/mL (≈ 18.4 µM)	3.12 µg/mL (≈ 9.19 µM)	258	403 µg/mL (≈ 1190 µM)	20.5%
N#Cc1ccc(Cn2cc(CNC(=O)c3ccccc3)nn2)cc1	39.4 µM (≈ 12.5 µg/mL)	25 µg/mL (≈ 78.8 µM)	25 µg/mL (≈ 78.8 µM)	25 µg/mL (≈ 78.8 µM)			
O=C(NCc1cn(Cc2ccccc2F)nn1)c1ccccc1	> 100 µM	50 µg/mL (≈ 161 µM)	inactive	50 µg/mL (≈ 161 µM)			
N#Cc1ccc(Cn2cc(COC(=O)c3cccnc3)nn2)cc1	78.3 µM (≈ 25 µg/mL)	50 µg/mL (≈ 157 µM)	50 µg/mL (≈ 157 µM)	25 µg/mL (≈ 78.3 µM)			
O=C(OCc1cn(Cc2ccc(C(F)(F)F)cc2)nn1)c1ccccc1	> 100 µM	inactive	inactive	50 µg/mL (≈ 138 µM)			
Fc1ccc(Cn2cc(CSc3nnc(-c4cnccn4)o3)nn2)cc1	33.8 µM (≈ 12.5 µg/mL)	50 µg/mL (≈ 135 µM)	25 µg/mL (≈ 67.7 µM)	25 µg/mL (≈ 67.7 µM)			
N#Cc1ccc(Cn2cc(CNC(=O)c3cnccn3)nn2)cc1	4.88 µM (≈ 1.56 µg/mL)	6.25 µg/mL (≈ 19.6 µM)	6.25 µg/mL (≈ 19.6 µM)	6.25 µg/mL (≈ 19.6 µM)	342	533 µg/mL (≈ 1670 µM)	12.3%
O=C(OCc1cn(Cc2ccccc2F)nn1)c1ccccc1	80.3 µM (≈ 25 µg/mL)	50 µg/mL (≈ 161 µM)	25 µg/mL (≈ 80.3 µM)	25 µg/mL (≈ 80.3 µM)			
O=C(NCc1cn(Cc2ccc([N+](=O)[O-])cc2)nn1)c1ccccc1	> 100 µM	50 µg/mL (≈ 148 µM)	50 µg/mL (≈ 148 µM)	50 µg/mL (≈ 148 µM)			
N#Cc1ccc(Cn2cc(COC(=O)c3ccccc3)nn2)cc1	39.3 µM (≈ 12.5 µg/mL)	50 µg/mL (≈ 157 µM)	25 µg/mL (≈ 78.5 µM)	25 µg/mL (≈ 78.5 µM)			
O=C(OCc1cn(Cc2ccc(F)cc2)nn1)c1cnccn1	9.95 µM (≈ 3.12 µg/mL)	25 µg/mL (≈ 79.8 µM)	12.5 µg/mL (≈ 39.9 µM)	12.5 µg/mL (≈ 39.9 µM)			
O=C(NCc1cn(Cc2ccc(C(F)(F)F)cc2)nn1)c1cccnc1	4.31 µM (≈ 1.56 µg/mL)	12.5 µg/mL (≈ 34.6 µM)	6.25 µg/mL (≈ 17.3 µM)	12.5 µg/mL (≈ 34.6 µM)	216	336 µg/mL (≈ 931 µM)	7.42%
O=C(OCc1cn(Cc2ccc(F)cc2)nn1)c1cccnc1	> 100 µM	50 µg/mL (≈ 160 µM)	inactive	50 µg/mL (≈ 160 µM)			
O=[N+]([O-])c1ccc(Cn2cc(CSc3nnc(-c4cccnc4)o3)nn2)cc1	63.2 µM (≈ 25 µg/mL)	25 µg/mL (≈ 63.2 µM)	50 µg/mL (≈ 126 µM)	25 µg/mL (≈ 63.2 µM)			
O=C(OCc1cn(Cc2ccc([N+](=O)[O-])cc2)nn1)c1ccccc1	> 100 µM	inactive	inactive	50 µg/mL (≈ 148 µM)			
Fc1ccccc1Cn1cc(CSc2nnc(-c3cnccn3)o2)nn1	> 100 µM	inactive	inactive	50 µg/mL (≈ 135 µM)			
O=C(OCc1cn(Cc2ccc(F)cc2)nn1)c1ccccc1	80.3 µM (≈ 25 µg/mL)	25 µg/mL (≈ 80.3 µM)	50 µg/mL (≈ 161 µM)	25 µg/mL (≈ 80.3 µM)			
O=C(OCc1cn(Cc2ccc(C(F)(F)F)cc2)nn1)c1cnccn1	8.59 µM (≈ 3.12 µg/mL)	25 µg/mL (≈ 68.8 µM)	25 µg/mL (≈ 68.8 µM)	25 µg/mL (≈ 68.8 µM)			
O=C(NCc1cn(Cc2ccc(F)cc2)nn1)c1ccccc1	> 100 µM	inactive	inactive	50 µg/mL (≈ 161 µM)			
O=C(OCc1cn(Cc2ccc([N+](=O)[O-])cc2)nn1)c1cccnc1	36.8 µM (≈ 12.5 µg/mL)	25 µg/mL (≈ 73.7 µM)	25 µg/mL (≈ 73.7 µM)	25 µg/mL (≈ 73.7 µM)			

Structure (SMILES)	MIC [1]	MIC (Pseudomonas aeruginosa)	MIC (Escherichia coli)	MIC (Staphylococcus aureus)	selectivity ratio [2]	IC50 (Vero)	inhibition at 48 h, 62.5 ug/ml [3]
N#Cc1ccc(Cn2cc(CNC(=O)c3cccnc3)nn2)cc1	4.9 µM (≈ 1.56 µg/mL)	6.25 µg/mL (≈ 19.6 µM)	6.25 µg/mL (≈ 19.6 µM)	6.25 µg/mL (≈ 19.6 µM)	256	399 µg/mL (≈ 1250 µM)	17.7%
O=C(NCc1cn(Cc2ccc(C(F)(F)F)cc2)nn1)c1cnccn1	4.31 µM (≈ 1.56 µg/mL)	25 µg/mL (≈ 69 µM)	12.5 µg/mL (≈ 34.5 µM)	12.5 µg/mL (≈ 34.5 µM)	219	342 µg/mL (≈ 944 µM)	8.4%
N#Cc1ccc(Cn2cc(CSc3nnc(-c4cnccn4)o3)nn2)cc1	16.6 µM (≈ 6.25 µg/mL)	50 µg/mL (≈ 133 µM)	50 µg/mL (≈ 133 µM)	25 µg/mL (≈ 66.4 µM)			
FC(F)(F)c1ccc(Cn2cc(CSc3nnc(-c4cccnc4)o3)nn2)cc1	> 100 µM	50 µg/mL (≈ 120 µM)	50 µg/mL (≈ 120 µM)	25 µg/mL (≈ 59.8 µM)			
O=C(NCc1cn(Cc2ccc([N+](=O)[O-])cc2)nn1)c1cccnc1	4.61 µM (≈ 1.56 µg/mL)	6.25 µg/mL (≈ 18.5 µM)	12.5 µg/mL (≈ 36.9 µM)	6.25 µg/mL (≈ 18.5 µM)	298	465 µg/mL (≈ 1380 µM)	7.08%
FC(F)(F)c1ccc(Cn2cc(CSc3nnc(-c4cnccn4)o3)nn2)cc1	59.6 µM (≈ 25 µg/mL)	25 µg/mL (≈ 59.6 µM)	25 µg/mL (≈ 59.6 µM)	25 µg/mL (≈ 59.6 µM)			
CN[C@@H]1[C@H](O[C@H]2[C@H](O[C@H]3[C@H](O)[C@@H](O)[C@H](N=C(N)N)[C@@H](O)[C@@H]3N=C(N)N)O[C@@H](C)[C@]2(O)C=O)O[C@@H](CO)[C@H](O)[C@H]1O	11.7 µM (≈ 6.83 µg/mL)						
O=C(NCc1cn(Cc2ccccc2F)nn1)c1cnccn1	9.99 µM (≈ 3.12 µg/mL)	12.5 µg/mL (≈ 40 µM)	12.5 µg/mL (≈ 40 µM)	6.25 µg/mL (≈ 20 µM)			
NC(=O)c1cnccn1	25.3 µM (≈ 3.12 µg/mL)						
Fc1ccccc1Cn1cc(CSc2nnc(-c3cccnc3)o2)nn1	> 100 µM	25 µg/mL (≈ 67.9 µM)	50 µg/mL (≈ 136 µM)	50 µg/mL (≈ 136 µM)			
O=C(O)c1cn(C2CC2)c2cc(N3CCNCC3)c(F)cc2c1=O [CIPROFLOXACIN]	9.41 µM (≈ 3.12 µg/mL)	4 µg/mL (≈ 12.1 µM)		2 µg/mL (≈ 6.04 µM)			
Fc1ccc(Cn2cc(CSc3nnc(-c4cccnc4)o3)nn2)cc1	> 100 µM	inactive	inactive	50 µg/mL (≈ 136 µM)			
O=C(NCc1cn(Cc2ccc(F)cc2)nn1)c1cnccn1	4.99 µM (≈ 1.56 µg/mL)	12.5 µg/mL (≈ 40 µM)	12.5 µg/mL (≈ 40 µM)	6.25 µg/mL (≈ 20 µM)	318	496 µg/mL (≈ 1590 µM)	5.9%
O=C(NCc1cn(Cc2ccccc2F)nn1)c1cccnc1	10 µM (≈ 3.12 µg/mL)	25 µg/mL (≈ 80.3 µM)	25 µg/mL (≈ 80.3 µM)	6.25 µg/mL (≈ 20.1 µM)			
Cc1ccc(Cn2cc(CSc3nnc(-c4cccnc4)o3)nn2)cc1	34.3 µM (≈ 12.5 µg/mL)	225 µg/mL (≈ 617 µM)	252 µg/mL (≈ 691 µM)	12.5 µg/mL (≈ 34.3 µM)			
N#Cc1ccc(Cn2cc(CSc3nnc(-c4cccnc4)o3)nn2)cc1	66.6 µM (≈ 25 µg/mL)	50 µg/mL (≈ 133 µM)	50 µg/mL (≈ 133 µM)	50 µg/mL (≈ 133 µM)			
O=C(NCc1cn(Cc2ccc(C(F)(F)F)cc2)nn1)c1ccccc1	> 100 µM	25 µg/mL (≈ 69.4 µM)	inactive	50 µg/mL (≈ 139 µM)			
N#Cc1ccc(Cn2cc(COC(=O)c3cnccn3)nn2)cc1	9.74 µM (≈ 3.12 µg/mL)	25 µg/mL (≈ 78 µM)	50 µg/mL (≈ 156 µM)	12.5 µg/mL (≈ 39 µM)			
Cc1ccc(Cn2cc(CSc3nnc(-c4cnccn4)o3)nn2)cc1	8.53 µM (≈ 3.12 µg/mL)	25 µg/mL (≈ 68.4 µM)	12.5 µg/mL (≈ 34.2 µM)	12.5 µg/mL (≈ 34.2 µM)			
O=C(NCc1cn(Cc2ccc(F)cc2)nn1)c1cccnc1	80.3 µM (≈ 25 µg/mL)	25 µg/mL (≈ 80.3 µM)	12.5 µg/mL (≈ 40.2 µM)	12.5 µg/mL (≈ 40.2 µM)			
O=[N+]([O-])c1ccc(Cn2cc(CSc3nnc(-c4cnccn4)o3)nn2)cc1	15.8 µM (≈ 6.25 µg/mL)	25 µg/mL (≈ 63.1 µM)	inactive	12.5 µg/mL (≈ 31.5 µM)			
O=C(OCc1cn(Cc2ccccc2F)nn1)c1cnccn1	19.9 µM (≈ 6.23 µg/mL)	50 µg/mL (≈ 160 µM)	25 µg/mL (≈ 79.8 µM)	25 µg/mL (≈ 79.8 µM)			
